Measurements as given in patent US8278469B2, “17-hydroxy-17-pentafluoroethyl-estra-4,9(10)-dien-11-aryl derivatives, method of production thereof and use thereof for the treatment of diseases” (Bayer Pharma Aktiengesellschaft, priority 2009, dated 2012).

Legend:
[1] = target: T1, human progesterone receptor B (PR-B) (Homo sapiens, UniProt P06401); assay: Progesterone receptor-antagonistic action in stable transfectants of SK-N-MC cells with human PR-B and MTV-LUC reporter; format: cell-based; details: SK-N-MC cells, 24 hours; for Emax: antagonistic efficacy against 0.1 nmol/l promegestone, read-out: Progesterone receptor B (PR-B) Efficacy; for IC50: antagonistic activity against 0.1 nmol/l promegestone, LUC reporter, read-out: Progesterone receptor B (PR-B) Potency IC50
T1 construct: expressed in transfected cells; host or cells: SK-N-MC human neuroblastoma cells, stably transfected with pRChPR-B-neo and pMMTV-LUC
T1 sequence (P06401 1-933): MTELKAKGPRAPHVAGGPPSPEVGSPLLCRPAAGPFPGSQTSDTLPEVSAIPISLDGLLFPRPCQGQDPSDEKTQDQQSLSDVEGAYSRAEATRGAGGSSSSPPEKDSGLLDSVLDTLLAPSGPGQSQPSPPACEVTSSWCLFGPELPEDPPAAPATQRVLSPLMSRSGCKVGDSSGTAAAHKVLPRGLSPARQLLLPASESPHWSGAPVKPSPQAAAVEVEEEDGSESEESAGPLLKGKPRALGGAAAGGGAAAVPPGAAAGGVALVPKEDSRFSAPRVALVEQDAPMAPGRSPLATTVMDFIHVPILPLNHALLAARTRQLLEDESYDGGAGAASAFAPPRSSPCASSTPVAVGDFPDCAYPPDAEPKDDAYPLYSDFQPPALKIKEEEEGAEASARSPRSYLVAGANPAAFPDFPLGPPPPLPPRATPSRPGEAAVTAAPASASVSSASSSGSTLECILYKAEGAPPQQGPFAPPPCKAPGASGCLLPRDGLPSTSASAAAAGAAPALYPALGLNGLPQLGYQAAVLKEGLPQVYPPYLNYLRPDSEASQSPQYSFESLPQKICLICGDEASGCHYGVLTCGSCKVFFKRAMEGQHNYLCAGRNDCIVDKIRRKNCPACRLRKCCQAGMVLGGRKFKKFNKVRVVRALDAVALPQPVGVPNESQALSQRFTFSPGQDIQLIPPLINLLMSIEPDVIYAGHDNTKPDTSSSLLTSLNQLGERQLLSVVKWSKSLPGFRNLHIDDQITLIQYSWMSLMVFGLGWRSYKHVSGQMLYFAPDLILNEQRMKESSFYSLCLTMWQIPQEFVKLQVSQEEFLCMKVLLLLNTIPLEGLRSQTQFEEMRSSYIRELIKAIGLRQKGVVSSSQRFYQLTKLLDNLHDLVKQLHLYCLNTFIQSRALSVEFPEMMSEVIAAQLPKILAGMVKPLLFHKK
Method: (§1) Progesterone Receptor-Antagonistic Action in Stable Transfectants of Human Neuroblastoma Cells (SK-N-MC Cells) with the Human Progesterone A or Progesterone B Receptor and an MTV-LUC Reporter Construct
(§2) SK-N-MC cells (human neuroblastoma cells), which have been stably transfected with plasmids, which express the human progesterone receptor B (pRChPR-B-neo) or the human progesterone receptor A (pRChPR-A-neo) and a reporter construct (pMMTV-LUC), were incubated for 24 hours either in the absence (negative control) or in the presence of increasing amounts of the respective test compound (0.01 nmol/l, 0.1 nmol/l, 1 nmol/l, 10 nmol/l, 100 nmol/l and 1 μmol/l), in order to determine the agonistic efficacy. As positive control of reporter gene induction, the cells were treated with the synthetic gestagen promegestone (0.01 nmol/l, 0.1 nmol/l, 1 nmol/l, 10 nmol/l, 100 nmol/l and 1 μmol/l). For determination of the antagonistic activity, the cells were treated with 0.1 nmol/l promegestone and additionally with increasing amounts of the respective test compound (0.01 nmol/l, 0.1 nmol/l, 1 nmol/l, 10 nmol/l, 100 nmol/l and 1 μmol/l). The activity of the LUC reporter gene (LUC=luciferase) was determined in the cell lysates and was measured as RLU (relative light units). All measured values are given as percentage efficacy and as EC50 or IC50 concentrations.
(§3) 11β-(4-Acetylphenyl)-20,20,21,21,21-pentafluoro-17-hydroxy-19-nor-17α-pregna-4,9-dien-3-one and 20,20,21,21,21-pentafluoro-17-hydroxy-11β-[4-(hydroxyacetyl)phenyl]-19-nor-17α-pregna-4,9-dien-3-one, very potent and therefore preferred examples from WO98/34947 and WO2008/058767, were tested as comparative compounds along with the test compound.

[2] = target: T2, human progesterone receptor A (PR-A) (Homo sapiens, UniProt P06401); assay: Progesterone receptor-antagonistic action in stable transfectants of SK-N-MC cells with human PR-A and MTV-LUC reporter; format: cell-based; details: SK-N-MC cells, 24 hours; for Emax: antagonistic efficacy against 0.1 nmol/l promegestone, read-out: Progesterone receptor A (PR-A) Efficacy; for IC50: antagonistic activity against 0.1 nmol/l promegestone, LUC reporter, read-out: Progesterone receptor A (PR-A) Potency IC50
T2 construct: expressed in transfected cells; host or cells: SK-N-MC human neuroblastoma cells, stably transfected with pRChPR-A-neo and pMMTV-LUC
T2 sequence (P06401 1-769 isoform P06401-2): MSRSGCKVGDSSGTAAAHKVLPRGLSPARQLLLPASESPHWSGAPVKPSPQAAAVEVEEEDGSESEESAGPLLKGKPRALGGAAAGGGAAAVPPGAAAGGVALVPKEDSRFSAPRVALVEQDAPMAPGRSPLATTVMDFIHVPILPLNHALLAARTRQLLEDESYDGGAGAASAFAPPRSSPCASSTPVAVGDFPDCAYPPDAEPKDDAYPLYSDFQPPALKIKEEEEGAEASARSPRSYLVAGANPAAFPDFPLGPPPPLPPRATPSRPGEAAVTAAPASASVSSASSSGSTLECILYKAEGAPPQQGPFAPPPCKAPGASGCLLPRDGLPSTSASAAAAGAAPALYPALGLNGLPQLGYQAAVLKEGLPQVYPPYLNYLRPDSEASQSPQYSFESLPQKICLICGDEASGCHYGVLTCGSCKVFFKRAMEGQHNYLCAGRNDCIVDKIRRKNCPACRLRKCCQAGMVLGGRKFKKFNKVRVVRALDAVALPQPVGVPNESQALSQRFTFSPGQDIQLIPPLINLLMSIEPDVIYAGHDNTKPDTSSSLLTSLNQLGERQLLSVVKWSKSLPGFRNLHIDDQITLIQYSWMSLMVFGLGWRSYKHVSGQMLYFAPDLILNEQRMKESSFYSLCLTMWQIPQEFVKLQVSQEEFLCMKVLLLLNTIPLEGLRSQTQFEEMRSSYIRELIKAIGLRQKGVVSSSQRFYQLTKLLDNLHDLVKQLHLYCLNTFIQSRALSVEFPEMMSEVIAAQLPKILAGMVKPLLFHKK
Method: as §1, §2, §3

[3] = Metabolic stability in human liver microsomes (HLM); format: in vitro ADME; details: HLM 0.5 mg/ml protein, 1 μM, 37° C., pH 7.4; well-stirred model, phase I reactions
Method: Metabolic Stability of (11β,17β)-17-hydroxy-11-[4-(methylsulphonyl)phenyl]-17-(pentafluoroethyl)estra-4,9-dien-3-one and (11β,17β)-17-hydroxy-11-[4′-(methylsulphonyl)-biphenyl-4-4-yl]-17-(pentafluoroethyl)estra-4,9-dien-3-one in Human Liver Microsomes (HLM)
Isolated human liver microsomes (HLM) were used for assessing the metabolic stability of compounds of general formula I.
Incubations were carried out with 2.4 ml of HLM solution (0.5 mg/ml protein content), 30 μl of the test compound (final concentration 1 μM) and 0.6 ml of the cofactor mixture (=NADPH-generating system of 3 IU glucose-6-phosphate dehydrogenase, 14.6 mg glucose-6-phosphate, 1.2 mg NADP) at 37° C. in 100 mM phosphate buffer at pH 7.4. Samples are taken at 6 time points (2-60 min), precipitated with an equal volume of methanol and the recovery of the test substances used in the supernatant is determined by LC-MS/MS analysis. The intrinsic clearance of the substance in the liver microsome preparation can be calculated from the half-life found for the breakdown of the substance. Based on this, together with various physiological characteristics according to the well-stirred model, it is then possible to predict a (metabolic) in vivo clearance with respect to phase I reactions. […]

Emax [1] [%]	Emax [2] [%]	(metabolic) in vivo clearance in humans predicted [3] [mL/min/kg]	IC50 [1] [nM]	IC50 [2] [nM]	Structure (SMILES)
100	100	–	–	–	CSc1ccc(-c2ccc([C@H]3C[C@@]4(C)[C@@H](CC[C@@]4(O)C(F)(F)C(F)(F)F)[C@@H]4CCC5=CC(=O)CCC5=C43)cc2)cc1 [Example 9, (11β,17β)-17-Hydroxy-11-[4′-(methylsulphanyl)biphenyl-4-yl]-17-(pentafluoroethyl)estra-4,9-dien-3-one]
100	100	–	0.072	0.072	C[C@]12C[C@H](c3ccc(-c4ccc(S)cc4)cc3)C3=C4CCC(=O)C=C4CC[C@H]3[C@@H]1CC[C@@]2(O)C(F)(F)C(F)(F)F [Example 13, (11β,17β)-17-hydroxy-17-(pentafluoroethyl)-11-(4′-sulphanylbiphenyl-4-yl)estra-4,9-dien-3-one]

Second part, the compound before the results:

Structure (SMILES)	Emax [1] [%]	Emax [2] [%]	(metabolic) in vivo clearance in humans predicted [3] [mL/min/kg]	IC50 [1] [nM]	IC50 [2] [nM]
C[C@]12C[C@H](c3ccc(-c4ccc(S(C)(=O)=O)cc4)cc3)C3=C4CCC(=O)C=C4CC[C@H]3[C@@H]1CC[C@@]2(O)C(F)(F)C(F)(F)F [Example 10, (11β,17β)-17-hydroxy-11-[4′-(methylsulphonyl)biphenyl-4-yl]-17-(pentafluoroethyl)estra-4,9-dien-3-one]	100	100	< 0.17	–	–
C[C@]12C[C@H](c3ccc(-c4ccc(S(C)(=N)=O)cc4)cc3)C3=C4CCC(=O)C=C4CCC3C1CC[C@@]2(O)C(F)(F)C(F)(F)F (stereo partly drawn) [Example 12, (11β,17β)-17-hydroxy-11-[4′-(RS-methylsulphonimidoyl)biphenyl-4-yl]-17-(pentafluoroethyl)estra-4,9-dien-3-one]	100	100	–	0.08	0.08
CN(C)S(=O)(=O)c1ccc(-c2ccc([C@H]3C[C@@]4(C)[C@@H](CC[C@@]4(O)C(F)(F)C(F)(F)F)[C@@H]4CCC5=CC(=O)CCC5=C43)cc2)cc1 [Example 14, 4′-[(11β,17β)-17-hydroxy-3-oxo-17-(pentafluoroethyl)estra-4,9-dien-11-yl]-N,N-dimethylbiphenyl-4-sulphonamide]	100	100	–	–	–
CN(C)S(=O)(=O)c1ccc([C@H]2C[C@@]3(C)[C@@H](CC[C@@]3(O)C(F)(F)C(F)(F)F)[C@@H]3CCC4=CC(=O)CCC4=C32)cc1 [Example 15, 4-[(11β,17β)-17-Hydroxy-3-oxo-17-(pentafluoroethyl)estra-4,9-dien-11-yl]-N,N-dimethylbenzene sulphonamide]	100	100	–	–	–
